Tests used:
full length MALT1 enzyme = biological target: T1, full length MALT1 enzyme (Homo sapiens, UniProt Q9UDY8); assay: MALT1 biochemical assay (fluorescence based, Ac-Leu-Arg-Ser-Arg-AMC cleavage); settings: full length MALT1 protein, 2 h pre-incubation at RT, tetrapeptide substrate Ac-Leu-Arg-Ser-Arg-AMC, read-out: Malt 1 inhibition IC50
T1 construct: a fluorescence based assay with full length MALT1 enzyme
T1 sequence (Q9UDY8 1-824): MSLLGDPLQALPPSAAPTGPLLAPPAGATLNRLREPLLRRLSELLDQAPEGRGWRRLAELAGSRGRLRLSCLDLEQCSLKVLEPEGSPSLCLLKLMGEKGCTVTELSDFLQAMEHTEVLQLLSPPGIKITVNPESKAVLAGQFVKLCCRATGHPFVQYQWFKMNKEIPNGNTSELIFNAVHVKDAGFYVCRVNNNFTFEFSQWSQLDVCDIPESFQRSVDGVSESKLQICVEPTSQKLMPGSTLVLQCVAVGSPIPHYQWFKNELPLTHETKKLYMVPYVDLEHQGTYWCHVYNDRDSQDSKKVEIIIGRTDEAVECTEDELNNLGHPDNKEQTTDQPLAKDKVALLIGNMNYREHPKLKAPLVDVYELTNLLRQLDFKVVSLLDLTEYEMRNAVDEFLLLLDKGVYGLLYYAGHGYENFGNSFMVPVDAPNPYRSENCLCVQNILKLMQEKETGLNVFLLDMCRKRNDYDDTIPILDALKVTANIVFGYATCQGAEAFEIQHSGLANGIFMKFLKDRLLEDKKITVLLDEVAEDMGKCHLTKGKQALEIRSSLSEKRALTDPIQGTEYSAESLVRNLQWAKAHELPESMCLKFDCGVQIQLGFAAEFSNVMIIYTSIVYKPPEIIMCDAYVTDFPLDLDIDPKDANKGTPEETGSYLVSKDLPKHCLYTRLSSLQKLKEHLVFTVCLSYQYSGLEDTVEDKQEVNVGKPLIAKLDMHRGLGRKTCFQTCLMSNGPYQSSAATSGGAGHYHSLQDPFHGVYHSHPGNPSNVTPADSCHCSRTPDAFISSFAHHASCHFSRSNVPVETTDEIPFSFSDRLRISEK
Protocol: The biochemical potency of the MALT1 inhibitors was tested by using a fluorescence based assay with full length MALT1 enzyme. The assay principle makes use of the preferential cleavage by MALT1 after the Arginine residue. Thus, the substrate used is a tetrapeptide (Ac-Leu-Arg-Ser-Arg-AMC; Catalogue # SMAMC013, SM Biochemicals) which is cleaved by active MALT1 releasing the AMC which is fluorescent. Upon addition of the MALT1 protease inhibitors, the proteolytic activity (and accordingly AMC fluorescence) is reduced in a dose dependent manner. The kinetic characterization of the enzymatic reaction was measured by determining the Michaelis constant, Km, of the reaction (approximately 130=A/I). The assay buffer consisted of 50 mM MES, 150 mM NaCl, 0.1% w/v CHAPS, 1 M Ammonium citrate and 10 mM DTT (pH=7). The assay was established for the 384-well plate format using black microtiter square well plates (Optiplate 384-F, Perkin Elmer). The test compounds were dissolved in 100% DMSO at a stock concentration of 10 mM. Serial dilutions were made first in 100% DMSO. The final concentration of DMSO was 0.5% by wt.
For determining the extent of inhibition of MALT1 protease activity by MALT1 inhibitors, 10⇒| of the test compound solutions were pre-incubated with 10⇒| of MALT1 full length protein (100-300 ng protein/well) for 2 h at RT. This was followed by 10⇒| of substrate addition at a final concentration of 100⇒M for an additional 4-12 h. The increase in assay signal was linear over this period of time and proportional with increase in the enzyme content. The final concentrations of the test compounds typically ranged from 10000 nM to 0.03 nM in an alternate 3.16 and 3 serial dilutions. The positive control for the reaction contained enzyme and DMSO (without any test compound) and was considered to have 100% enzyme activity (0% inhibition) and the negative control containing only buffer and DMSO (without any enzyme) was considered to have no enzymatic activity (100% inhibition). The fluorescence was recorded in a Spectra Max plate reader, Molecular Devices, with a fluorescence excitation at 360 nm and emission recording at 460 nm. The fluorescence units were transformed to percentage inhibitions by using the positive and negative controls as references as per the following formula.
[formula] Positive control=Reaction containing enzyme+substrate+DMSO
Negative control=Reaction containing substrate+DMSO but no enzyme
The IC50 values of individual compounds were calculated with Non Linear Regression Analysis using Graph Pad Prism (Graph Pad software, Inc, USA).

[1] = system: NF-kB transcriptional activity in HEK-293-NF-kB-Luc cell line overexpressing MALT1; assay: NF-kB reporter assay (luciferase, MALT1 stably overexpressed); type: cell-based; settings: Homo sapiens, 24 h, HEK-293-NF-kB-Luc cells stably overexpressing MALT1, 24 h treatment, Bright Glo luminescence; read-out: NF-kB inhibition IC50
How it was run: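 HEK-293-NF-κB-Luc cells stably overexpressing MALT1 were seeded overnight, then exposed to test compounds for 24 h. Bright Glo added 10 min at ambient temperature and luminescence read; % inhibition calculated against 0.1% DMSO controls.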

| Structure (SMILES) | IC50 (full length MALT1 enzyme) [nM] | IC50 [1] [nM] |
| --- | --- | --- |
| COCC1CCCN(c2c(NC(=O)Nc3cnc(-n4nccn4)c(Cl)c3)cnc3sc(C)nc23)C1 (racemic) [Compound 50, (ě)-1-(5-Chloro-6-(2H-1,2,3-triazol-2-yl)pyridin-3-yl)-3-(7-(3-(methoxymethyl)piperidin-1-yl)-2-methylthiazolo[5,4-b]pyridin-6-yl)urea] | 1 to 50 | 101 to 500 |
| COCC1CCCN(c2c(NC(=O)Nc3cnc(OC)c(Cl)c3)cnc3sc(C)nc23)C1 (racemic) [Compound 51, (ě)-1-(5-Chloro-6-methoxypyridin-3-yl)-3-(7-(3-(methoxymethyl)piperidin-1-yl)-2-methylthiazolo[5,4-b]pyridin-6-yl)urea] | 51 to 100 | 501 to 1500 |
| COC1CCCN(c2c(NC(=O)Nc3cnc(-n4nccn4)c(Cl)c3)cnc3sc(C)nc23)C1 (racemic) [Compound 52, (ě)-1-(5-Chloro-6-(2H-1,2,3-triazol-2-yl)pyridin-3-yl)-3-(7-(3-methoxypiperidin-1-yl)-2-methylthiazolo[5,4-b]pyridin-6-yl)urea] | 1 to 50 | 101 to 500 |
| Cc1nc2c(C3CC3)c(NC(=O)Nc3ccnc(C(F)(F)F)c3)cnc2s1 [Compound 3, 1-(7-Cyclopropyl-2-methylthiazolo[5,4-b]pyridin-6-yl)-3-(2-(trifluoromethyl)pyridin-4-yl)urea] | 101 to 500 | – |
| Cc1nc2c(C3CC3)c(NC(=O)Nc3cnc(OC(C)C)c(Cl)c3)cnc2s1 [Compound 6, 1-(5-Chloro-6-isopropoxypyridin-3-yl)-3-(7-cyclopropyl-2 methylthiazolo[5,4-b]pyridin-6-yl)urea] | 51 to 100 | – |
| COc1ncc(NC(=O)Nc2cnc3sc(C)nc3c2C2CC2)cc1C(F)(F)F [Compound 8, 1-(7-Cyclopropyl-2-methylthiazolo[5,4-b]pyridin-6-yl)-3-(6-methoxy-5-(trifluoromethyl)pyridin-3-yl)urea] | 101 to 500 | – |
| Cc1nc2c(C3CC3)c(NC(=O)Nc3cncc(C#N)c3)cnc2s1 [Compound 10, 1-(5-Cyanopyridin-3-yl)-3-(7-cyclopropyl-2-methylthiazolo[5,4-b]pyridin-6-yl)urea] | 101 to 500 | – |
| COc1ncc(NC(=O)Nc2cnc3sc(C)nc3c2-c2cccnc2F)cc1Cl [Compound 16, 1-(5-Chloro-6-methoxypyridin-3-yl)-3-(7-(2-fluoropyridin-3-yl)-2-methylthiazolo[5,4-b]pyridin-6-yl)urea] | 1 to 50 | – |
| COc1ccc(NC(=O)Nc2cnc3sc(C)nc3c2-c2cccnc2F)cc1Cl [Compound 17, 1-(3-Chloro-4-methoxyphenyl)-3-(7-(2-fluoropyridin-3-yl)-2-methylthiazolo[5,4-b]pyridin-6-yl)urea] | 101 to 500 | – |
| COc1ncc(NC(=O)Nc2cnc3sc(C)nc3c2-c2ccncc2F)cc1Cl [Compound 18, 1-(5-Chloro-6-methoxypyridin-3-yl)-3-(7-(3-fluoropyridin-4-yl)-2-methylthiazolo[5,4-b]pyridin-6-yl)urea] | 51 to 100 | – |
| Cc1nc2c(N3CC(C)OC(C)C3)c(NC(=O)Nc3cnc(-n4nccn4)c(Cl)c3)cnc2s1 (stereo not drawn) [Compound 39, 1-(5-Chloro-6-(2H-1,2,3-triazol-2-yl)pyridin-3-yl)-3-(7-(2,6-dimethylmorpholino)-2-methylthiazolo[5,4-b]pyridin-6-yl)urea] | 51 to 100 | – |
| COC(C)(C)c1c(NC(=O)Nc2ccc(-n3nccn3)c(C(F)(F)F)c2)cnc2sc(C)nc12 [Compound 97, 1-(4-(2H-1,2,3-Triazol-2-yl)-3-(trifluoromethyl)phenyl)-3-(7-(2-methoxypropan-2-yl)-2-methylthiazolo[5,4-b]pyridin-6-yl)urea] | 1 to 50 | – |
| COc1ncc(NC(=O)Nc2cnc3sc(C)nc3c2N2CCOCC2)cc1Cl [Compound 112, 1-(5-Chloro-6-methoxypyridin-3-yl)-3-(2-methyl-7-morpholinothiazolo[5,4-b]pyridin-6-yl)urea] | 51 to 100 | – |
| CCc1nc2c(C3CC3)c(NC(=O)Nc3cnc(OC)c(Cl)c3)cnc2s1 [Compound 116, 1-(5-Chloro-6-methoxypyridin-3-yl)-3-(7-cyclopropyl-2-ethylthiazolo[5,4-b]pyridin-6-yl)urea] | 1 to 50 | – |
| Cc1nc2c(C3CC3)c(NC(=O)Nc3ccc(OC(F)F)c(Cl)c3)cnc2s1 [Compound 193, 1-(3-Chloro-4-(difluoromethoxy)phenyl)-3-(7-cyclopropyl-2-methylthiazolo[5,4-b]pyridin-6-yl)urea] | 51 to 100 | – |

Continued, in another order:

| IC50 (full length MALT1 enzyme) [nM] | Structure (SMILES) | IC50 [1] [nM] |
| --- | --- | --- |
| 1 to 50 | Cc1nc2c(C(C)O)c(NC(=O)Nc3cnc(-n4nccn4)c(C(F)(F)F)c3)cnc2s1 (single isomer, unassigned) [Compound 71b, 1-(6-(2H-1,2,3-Triazol-2-yl)-5-(trifluoromethyl)pyridin-3-yl)-3-(7-(1-hydroxyethyl)-2-methylthiazolo[5,4-b]pyridin-6-yl)urea] | 1 to 100 |
| 1 to 50 | Cc1nc2c(C(C)N(C)C)c(NC(=O)Nc3cnc(-n4nccn4)c(C(F)(F)F)c3)cnc2s1 (single isomer, unassigned) [Compound 74b, 1-(6-(2H-1,2,3-Triazol-2-yl)-5-(trifluoromethyl)pyridin-3-yl)-3-(7-(1-(dimethylsmino)ethyl)-2-methylthiazolo[5,4-b]pyridin-6-yl)urea] | 1 to 100 |
| 1 to 50 | COC(c1c(NC(=O)Nc2cnc(-n3nccn3)c(C(F)(F)F)c2)cnc2sc(C)nc12)C(C)C (single isomer, unassigned) [Compound 78b, 1-(6-(2H-1,2,3-Triazol-2-yl)-5-(trifluoromethyl)pyridin-3-yl)-3-(7-(1-methexyl-methylpropyl)-2-methylthiazolo[5,4-b]pyridin-6-yl)urea] | 1 to 100 |
| 1 to 50 | COC(c1ccccc1)c1c(NC(=O)Nc2cnc(-n3nccn3)c(Cl)c2)cnc2sc(C)nc12 (single isomer, unassigned) [Compound 84b, 1-(5-Chloro-6-(2H-1,2,3-triazol-2-yl)pyridin-3-yl)-3-(7-(methoxy(phenyl)methyl)-2-methylthiazolo[5,4-b]pyridin-6-yl)urea] | 1 to 100 |
| 1 to 50 | COc1nc(-n2nccn2)c(C(F)(F)F)cc1NC(=O)Nc1cnc2sc(C)nc2c1C(C)OC (single isomer, unassigned) [Compound 88b, 1-(2-Methoxy-6-(2H-1,2,3-triazol-2-yl)-5-(trifluoromethyl)pyridin-3-yl)-3-(7-(1-methoxyethyl)-2-methylthiazolo[5,4-b]pyridin-6-yl)urea] | 1 to 100 |
| 1 to 50 | COc1nc(-n2nccn2)c(Cl)cc1NC(=O)Nc1cnc2sc(C)nc2c1C(C)OC (single isomer, unassigned) [Compound 90a, 1-(5-Chloro-2-methoxy-6-(2H-1,2,3-triazol-2-yl)pyridin-3-yl)-3-(7-(1-methoxyethyl)-2-methylthiazolo[5,4-b]pyridin-6-yl)urea] | 1 to 100 |

From US20190275012A9, “SUBSTITUTED THIAZOLO-PYRIDINE COMPOUNDS AS MALT1 INHIBITORS” (Lupin Limited, priority 2016, published 2019)
